Results taken from US20220152012A1 (The Regents of the University of California, priority 2020, published 2022).
Read-outs that look alike come from different tables or passages of the source.

Legend:
[1] = system: human hepatic stellate cells from non-fibrotic subjects; experiment: Prevention of TGF-β or H2O2-induced collagen production (Sirius Red); format: cell-based; conditions: inducer alone: H2O2 25 μM or TGF-β 20 ng/mL, 24 h, vs vehicle
Procedure: Hepatic stellate cell fibrosis quantification.
Hepatic stellate cell fibrosis was assessed by measuring collagen content by Sirius Red staining kit.

[2] = system: human hepatic stellate cells from normal non-fibrosis subjects; experiment: ROS (DCFDA) after oxidative stress induced by palmitic acid or H2O2; format: cell-based; conditions: inducer alone: palmitic acid 0.5 mM or H2O2 25 μM, vs vehicle
Procedure: Reactive Oxygen Species (ROS) quantification. ROS production, as an index of oxidative stress, in stellate cells was measured using DCFDA fluorescence as described previously. In brief, cells were incubated with DCFDA (10 μmol/L) for 30 min.

[3] = cited from earlier work
[4] = cited from earlier work; remark: listed apart in the source
[5] = cited from earlier work; remark: listed apart in the source

Compound: OO [H2O2, hydrogen peroxide]
- increase of collagen content [1]: 266%
- induction of stellate cell ROS levels [2]: 5.2 fold

Compound: O=C(O[C@H]1[C@H](OC(=O)c2cccnc2)[C@@H](OC(=O)c2cccnc2)[C@H](OC(=O)c2cccnc2)[C@@H](OC(=O)c2cccnc2)[C@H]1OC(=O)c1cccnc1)c1cccnc1 [inositol hexanicotinate]
- tolerability ([3]; in vivo): well tolerated
- management of dyslipidemia ([3]; vs placebo (Keenan 2010)): no better than placebo
- peak plasma level of nicotinic acid ([4]; 1,000 mg of IHN (˜910 mg nicotinic acid equivalent), oral): 0.2 µg/mL
- time for hydrolysis of the ester bonds and release of free nicotinic acid ([4]; human serum): more than 48 hours
- time of peak plasma levels of free nicotinic acid ([4]; oral doses of 0.8 to 4.2 g of inositol hexanicotinate, humans): 6 to 12 h
- gastrointestinal absorption, average of orally ingested dose absorbed ([4]; oral): 70%

Compound: O=C(O)c1cccnc1 [niacin, nicotinic acid]
- absorption ([5]; oral amounts of 3-4 grams): nearly complete
- time of peak plasma levels of free nicotinic acid ([5]; oral dose of 1000 mg of nicotinic acid): 0.5 to 1 h
- eliminated by the kidneys as unchanged niacin or nicotinuric acid ([5]; oral pharmacologic dose): Approximately 88%
- peak plasma level of nicotinic acid ([5]; single oral dose of 1000 mg nicotinic acid): 30 µg/mL

Compound: CCCCCCCCCCCCCCCC(=O)O [palmitic acid]
- induction of stellate cell ROS levels [2]: 3.6 fold

Compound: TGF-β
- increase of collagen content [1]: 233%
